Test results taken from PubChem BioAssay AID588407 (The Scripps Research Institute Molecular Screening Center, 2011).
Activity calls are given as the source filed them. No rule for the calls is given here.

These molecules were tested against Mu-type opioid receptor (Homo sapiens) + Delta-type opioid receptor (Homo sapiens) (UniProt P35372+P41143) (assay: OPRM1-OPRD1 heterodimer agonist potency – cell-based, luminescence, dose response (AID 588407;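 also: potency of agonists raising the heterodimer signal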)). Details: cells, MOR-DOR heterodimerization.
Chain of Mu-type opioid receptor (Homo sapiens) + Delta-type opioid receptor (Homo sapiens) (P35372 whole entry, looked up): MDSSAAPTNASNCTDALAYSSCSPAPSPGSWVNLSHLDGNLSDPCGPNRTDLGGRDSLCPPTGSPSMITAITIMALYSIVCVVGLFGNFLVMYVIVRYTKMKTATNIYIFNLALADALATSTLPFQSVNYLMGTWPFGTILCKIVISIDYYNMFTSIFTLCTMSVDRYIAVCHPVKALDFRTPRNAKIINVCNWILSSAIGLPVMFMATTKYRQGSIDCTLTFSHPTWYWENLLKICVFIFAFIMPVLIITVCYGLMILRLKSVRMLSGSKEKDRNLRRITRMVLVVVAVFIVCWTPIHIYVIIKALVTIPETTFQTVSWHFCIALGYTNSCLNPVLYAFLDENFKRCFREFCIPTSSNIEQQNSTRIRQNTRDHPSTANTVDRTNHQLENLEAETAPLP
Chain of Mu-type opioid receptor (Homo sapiens) + Delta-type opioid receptor (Homo sapiens) (P41143 whole entry, looked up): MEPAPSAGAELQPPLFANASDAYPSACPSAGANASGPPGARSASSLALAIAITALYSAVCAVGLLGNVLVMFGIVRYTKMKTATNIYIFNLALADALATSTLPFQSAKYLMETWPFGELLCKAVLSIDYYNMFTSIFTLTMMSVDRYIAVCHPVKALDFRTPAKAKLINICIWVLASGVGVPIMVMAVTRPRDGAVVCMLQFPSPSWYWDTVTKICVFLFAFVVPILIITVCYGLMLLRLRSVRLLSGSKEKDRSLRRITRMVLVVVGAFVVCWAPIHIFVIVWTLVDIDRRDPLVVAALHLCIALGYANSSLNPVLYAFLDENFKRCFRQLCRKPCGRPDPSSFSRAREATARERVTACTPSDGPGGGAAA
For `O=C(N[C@H]1C/C=C\C[C@H](CC(=O)N(CCO)Cc2ccccc2)C(=O)N[C@H](Cc2c[nH]c3ccccc23)COC1=O)OCC1c2ccccc2-c2ccccc21`, the EC50 was “inactive”. In the case of `Cc1ccc(Cn2c(=N)n(CC(O)COc3ccccc3)c3ccccc32)cc1` (stereo unspecified), the EC50 is reported as “inactive”. With `Cc1cc2[nH]c3c4ccccc4nc(C)c3c2cc1C` the EC50 was 7.66 µM. For `COCC1CCN(Cc2cn(-c3ccccc3F)nc2-c2cc(C)sc2C)CC1`, the EC50 was “inactive”. With `c1ccc(C2(N3CCCCC3)CCCCC2)cc1` the EC50 was 0.961 µM. `CSCCC(/C(O)=C(\C#N)c1nc2ccccc2[nH]1)N1C(=O)c2ccccc2C1=O` (stereo unspecified) was tested, and the EC50 was 9.92 µM. With `COc1ccc(C(C)NCCC(c2ccc(OC(C)C)cc2)c2ccccc2OC)cc1` (stereo unspecified) the EC50 was “inactive”. In the case of `CCOc1ccc(Nc2c3ccccc3nc3ccccc23)cc1`, the EC50 is reported as “inactive”. `CC(CC(=O)N(CCC1=CCCCC1)c1c(N)n(Cc2ccccc2)c(=O)[nH]c1=O)c1ccccc1` (stereo unspecified) was tested, and the EC50 was > 92.5 µM (inactive). `CCC(=O)OC(Cc1ccccc1)(c1ccccc1)[C@H](C)CN(C)C` (stereo partly specified) gave an EC50 of 9.98 µM. Work on `CN(C)C(CNC(=O)Cc1ccc(Br)cc1)c1ccccc1` (stereo unspecified) yielded an EC50 of 0.915 µM. `CN(C)C(CNC(=S)Nc1ccccc1)c1cccnc1` (stereo unspecified) gave an EC50 of 3.47 µM. Work on `CCc1ccc(Nc2n[n+](-c3ccccc3)c(-c3c(Cl)cccc3Cl)s2)cc1` yielded an EC50 of 9.08 µM. `CSC(=Nc1ccccc1)N=C(SCc1ccccc1)N(C)C` gave an EC50 of 7.33 µM. With `Brc1ccc(NC2=Nc3ccccc3CC2)cc1` the EC50 was “inactive”. With `COc1ccc(-c2csc(N(CCCN(C)C)C(=O)c3cccs3)n2)cc1` the EC50 was “inactive”. `Cc1ccc(C)c(NC(=S)NCC(c2ccccc2)N(C)C)c1` (stereo unspecified) was tested, and the EC50 was 0.535 µM. With `CCc1cccc(C)c1NC(=S)NCC(c1cccnc1)N(C)C` (stereo unspecified) the EC50 was 3.68 µM. In the case of `Cc1ccc(CC(=O)NCC(c2ccco2)N(C)C)cc1C` (stereo unspecified), the EC50 is reported as 9.05 µM. In the case of `CN1CCN(c2ccc(NC(=O)c3ccc(-c4cccc([N+](=O)[O-])c4)o3)cc2)CC1`, the EC50 is reported as “inactive”. `Cc1ccccc1NC(=S)NCC(c1cccnc1)N(C)C` (stereo unspecified) gave an EC50 of 1.54 µM. `CC(=O)Nc1ccc(CN2CCCC(C(=O)c3cccc(C(F)(F)F)c3)C2)cc1` (stereo unspecified) was tested, and the EC50 was 9.35 µM. Molecule `COC(=O)C(Cc1cccc(C)n1)(c1ccccc1)c1ccccc1` has an EC50 of 3.93 µM. With `COc1cc(Br)cc(/C=N/NC(=O)Cc2ccc(C(F)(F)F)cc2[N+](=O)[O-])c1O` the EC50 was “inactive”. In the case of `COc1ccc2[nH]c3c(=O)n(/N=C/[C@H]4C(C)C=C(C)CC4C)c(=O)[nH]c3c2c1` (stereo partly specified), the EC50 is reported as > 92.5 µM (inactive). With `CN(C)C(CNC(=O)C1CC(=O)N(Cc2ccccc2)C1)c1ccccc1` (stereo unspecified) the EC50 was “inactive”. `Cc1ccccc1N1CC(O)(c2ccccc2)[N+]2=C1SCC2` (stereo unspecified) showed an EC50 of 2.12 µM. For `COc1ccc(C(CNC(=O)CSc2ccccc2C)N(C)C)cc1` (stereo unspecified), the EC50 was 4.56 µM. `CN(C)CCCN(C(=O)c1ccc(S(=O)(=O)N(C)Cc2ccccc2)cc1)c1nc2c(F)cccc2s1` showed an EC50 of 4.97 µM. For `Cn1c(-c2c(N)n(CCc3ccccc3)c3nc4ccccc4nc23)nc2ccccc21`, the EC50 was 3.15 µM. For `CN(C)c1ccc(C(CNC(=O)Cc2cccc3ccccc23)N(C)C)cc1` (stereo unspecified), the EC50 was “inactive”.
